Values of other authors as cited in patent publication US6458389B1 (priority 1997, dated 2002).
Where two headings read alike, the source gives them in different places.

Columns and labels:
rats = settings: rat, in vivo, iv
mice = mice treated orally, toxic dose of 70 mg/kg

N.N.[Cl][Pt][Cl] [cisplatin]
Electron microscope analysis of tissues (kidneys) (48 hours after oral administration): only slight changes in the kidneys
Electron microscope analysis of tissues (kidneys) (intravenous administration): symptoms of nephrotoxicity are observable
Urea concentrations in the blood, multiplication factor (rats): 14
Histopathological change in the kidneys (mice): No histopathological change in the kidneys
